Key:
[1] = target: T1, EYA4 tyrosine phosphatase (Homo sapiens, UniProt O95677); test: Malachite green phosphatase assay, full length EYA4, tyrosine phosphatase activity; type: biochemical; settings: increasing amounts of inhibitor
T1 construct: GFP (pEGFP-C1) (N, cleaved yes); made in house; host or cells: Expi293 mammalian suspension cells
T1 sequence (O95677 1-639): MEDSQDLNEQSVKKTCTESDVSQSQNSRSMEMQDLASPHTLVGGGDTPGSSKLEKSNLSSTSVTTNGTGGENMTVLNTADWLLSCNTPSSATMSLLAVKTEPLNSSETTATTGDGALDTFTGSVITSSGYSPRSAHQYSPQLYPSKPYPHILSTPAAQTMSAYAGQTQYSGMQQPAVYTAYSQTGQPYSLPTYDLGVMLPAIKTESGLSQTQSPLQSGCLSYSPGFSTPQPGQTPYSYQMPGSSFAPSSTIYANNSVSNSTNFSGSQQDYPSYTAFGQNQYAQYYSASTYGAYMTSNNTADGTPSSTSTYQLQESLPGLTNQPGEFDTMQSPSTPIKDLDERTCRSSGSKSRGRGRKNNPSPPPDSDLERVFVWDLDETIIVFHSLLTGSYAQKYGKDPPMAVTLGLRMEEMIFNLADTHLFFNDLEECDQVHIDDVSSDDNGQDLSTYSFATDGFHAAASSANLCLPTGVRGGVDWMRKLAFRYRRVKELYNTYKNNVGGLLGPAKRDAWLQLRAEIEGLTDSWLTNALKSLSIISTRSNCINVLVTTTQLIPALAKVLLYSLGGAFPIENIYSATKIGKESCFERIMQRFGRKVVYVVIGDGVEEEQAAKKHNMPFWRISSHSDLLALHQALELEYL
Experimental: (§1) To measure phosphatase activity, increasing concentrations of EYA4 (0-200 nM, alone or pre-incubated with ssDNA) were incubated in the presence of 400 nM potential substrates (peptides sourced from Genscript, see list and sequence in figures) in 50 μL of reaction buffer A ([…] pH 6, 2 mM MgCl2, 50 μM DTT) for 1 h at 37° C. At the end of the first incubation, the reaction mix containing malachite green was added to phosphatase or ATPase reactions, and the mixture was further incubated for 30 minutes at 37° C. Plates were read at 620 nm in a plate reader. The quantity of […] was inferred from the standard curve prepared as per manufacturer recommendation (Sigma).
[…] proteins have been described to dephosphorylate residue Y142 on the histone variant H2AX and the same activity was recently confirmed in EYA4. Using the synthetic peptide KATQASQE{pTyr} as substrate and a commercial colorimetric malachite green assay (Sigma) that allows to quantify […] released in the buffer by a phosphatase, EYA4's tyrosine phosphatase activity was assayed in the presence of putative inhibitors.
In a malachite green assay, the tyrosine but not serine/threonine phosphatase activity was inhibited by CIDD molecule—149689. […]

[2] = target: T2, EYA4 serine/threonine phosphatase domain (Homo sapiens, UniProt O95677); test: Malachite green phosphatase assay, first 365 residues of EYA4 (serine/threonine phosphatase domain), 53BP1-derived peptide; type: biochemical
T2 construct: the N-terminus domain of EYA4 (residues 1-365), was sub-cloned as a Strep-mCherry-EYA4-His construct; Strep (N); His (C); made in house; host or cells: Sf9 insect cells (baculovirus, pFastBac1)
T2 sequence (O95677 1-365): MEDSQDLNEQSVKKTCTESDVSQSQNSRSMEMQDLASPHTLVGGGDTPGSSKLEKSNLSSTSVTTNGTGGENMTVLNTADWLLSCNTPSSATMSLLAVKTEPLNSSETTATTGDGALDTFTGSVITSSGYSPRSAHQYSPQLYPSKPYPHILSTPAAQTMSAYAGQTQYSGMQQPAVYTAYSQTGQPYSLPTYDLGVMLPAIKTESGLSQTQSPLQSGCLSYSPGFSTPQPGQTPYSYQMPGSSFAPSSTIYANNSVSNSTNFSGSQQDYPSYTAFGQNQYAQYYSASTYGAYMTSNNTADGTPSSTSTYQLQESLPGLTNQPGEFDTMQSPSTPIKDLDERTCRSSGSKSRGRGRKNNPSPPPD
Experimental: as §1
In a malachite green assay, the tyrosine but not serine/threonine phosphatase activity was inhibited by CIDD molecule—149689. For this assay, full length EYA4 purified near homogeneity as previously described was incubated with increasing amounts of inhibitor, then mixed with either peptide KATQASQE{pTyr} from H2AX or with peptide from RAD51.

[3] = test system: HRD+ pancreatic cell lines; test: Survival of treated pancreatic cell lines panel; type: cell-based; settings: at the concentrations tested, FIG. 34C
From the text: Using molecules that target regulators of DNA metabolism mechanisms (repair, recombination, replication), such as kinase and phosphatase can offer a therapeutic window for drug resistant, HRD>0 patients. EYA4 inhibitors have been tested on the pancreatic cell lines panel. […] EYA4i have therapeutic potential for the treatment of pancreatic cancer, including PARPi refractory disease.

EYA4 tyrosine phosphatase activity ([1]; peptide KATQASQE{pTyr} from H2AX) | EYA4 tyrosine phosphatase activity ([1]; peptide from RAD51) | serine/threonine phosphatase activity [2] | SMILES | growth of pancreatic cells [3]
significantly reduced | significantly reduced | not inhibited | Clc1ccc(CNc2nc(NC3CCCC3)nc3ccccc23)cc1Cl [CIDD molecule—149689, N2-cyclopentyl-N4-(3,4-dichlorobenzyl) quinazoline-2,4-diamine] | –
– | – | – | O=C(NN=Cc1ccc(Sc2ncccn2)o1)c1cccc(Cl)c1 [CSCS14817788384, 3-chloro-N′-{[5-(pyrimidin-2-ylsulfanyl)furan-2-yl]methylidene}benzohydrazide] | does not efficiently inhibit growth
